5 compounds from the NIST ThermoML archive (doi:10.1016/j.fluid.2015.01.010) can be followed below.

Numbers after ± are expanded uncertainties.

The nature of this data set: activity coefficient (dimensionless); of the first substance listed, at infinite dilution; xn = mol fraction of the nth substance listed. As to conditions: 101 kPa, Liquid, Chromatography, x1 = 0.

`CCCCC=O` [pentanal] + O: the activity coefficient was 220 ± 8 (298.15 K); 260 ± 10 (303.15 K); 276 ± 10 (308.15 K); 302 ± 12 (313.15 K); 324 ± 12 (318.15 K); 339 ± 14 (323.15 K). Besides, the activity coefficient (328.15 K) turned out to be 350 ± 14.
Take `CCCCO` [butan-1-ol] + O: the activity coefficient reads like this: (303.15 K) 52 ± 3; (308.15 K) 57 ± 2; (313.15 K) 58 ± 3; (318.15 K) 64 ± 3; (323.15 K) 69 ± 3; (328.15 K) 72 ± 3. Moreover, the activity coefficient worked out at 80 ± 3 (333.15 K) and 78 ± 3 (338.15 K).
Turning to `C=CC=O` [2-propenal] + O, the activity coefficient was 20.9 ± 0.8 (298.15 K); 21.5 ± 0.8 (301.15 K); 21.4 ± 0.8 (303.15 K); 21.7 ± 0.8 (305.15 K); 22.4 ± 0.8 (308.15 K); 22.6 ± 0.8 (310.15 K). The activity coefficient reads like this: (313.15 K) 23.1 ± 0.9; (315.15 K) 23.5 ± 0.9; (318.15 K) 24 ± 0.9; (320.15 K) 24.1 ± 0.9; (323.15 K) 24.1 ± 0.9; (325.15 K) 24.3 ± 0.9. Also, the activity coefficient reads like this: (328.15 K) 24.3 ± 0.9; (330.15 K) 24.5 ± 0.9; (333.15 K) 24.4 ± 1.
Turning to `C/C=C/C=O` [(E)-2-butenal] + O, the activity coefficient stood at 39 ± 1.6 (298.15 K); 42.8 ± 1.6 (308.15 K); 44.4 ± 1.8 (313.15 K); 46.2 ± 1.9 (318.15 K); 47 ± 2.1 (323.15 K); 47.3 ± 2 (328.15 K). The activity coefficient (333.15 K) was 48 ± 1.9.
In the case of `c1ccoc1` [furan] + O, the activity coefficient reads like this: (298.15 K) 415 ± 20; (299.15 K) 412 ± 20; (301.15 K) 403 ± 19; (303.15 K) 397 ± 19; (305.15 K) 394 ± 19; (306.15 K) 380 ± 19. Also, the activity coefficient is, setting by setting: (308.15 K) 372 ± 19; (311.15 K) 366 ± 22; (313.15 K) 356 ± 20.
